How the values were obtained:
[1] = tested on: chicken pre-B cell line DT40; test: Thymidine incorporation toxicity assay in isogenic DT40 cells with or without KU70, RAD52, RAD54; format: cell-based; conditions: for effect of loss of KU70 on toxicity: DT40 with or without KU70; for effect of loss of homologous recombination (RAD52 or RAD54) on toxicity: DT40 with or without RAD52 or RAD54
Procedure: (§1) Cell lines were grown at 37° C. in an atmosphere of 5% CO2. The chicken pre-B cell line DT40 and its derivatives (Bezzubova, et al., Cell 89: 185–93 (1997), Takata, et al., EMBO Journal 17: 5497–508 (1998), Yamaguchi-Iwai, et al., Molecular & Cellular Biology 18: 6430–5 (1998)) were grown in RPMI containing 10% fetal calf serum and 1% chicken serum. The remaining cell lines were grown in DMEM with 10% fetal calf serum.
(§2) Toxicity assays in mammalian cell lines were performed using tritiated thymidine incorporation as a measure of the number of viable cells. […] Drug toxicity was measured as follows:
(§3) Cells were plated at a density of 500 cells per well in opaque 96 well plates (Packard) in a volume of 135 μL per well of the appropriate media. The plates were incubated overnight to allow cell adherence. Seven two-fold dilutions of the test compounds were added in a volume of 15 μL per well in triplicate, and 15 μL of media containing an appropriate concentration of DMSO was added to control wells in triplicate. Plates were incubated at 37° C. for 96 hours. The media was then replaced with 100 μL per well of the appropriate media containing 2 μCi/mL of (methyl-^3H) thymidine (Amersham Pharmacia Biotech), then plates were incubated for a further 24 hours at 37° C. Cells were washed three times with PBS, then 100 μL per well of scintillant was added (Microscint 20, Packard), and sealed plates were counted in a microplate reader (Packard Topcount). For suspension chicken cells, (methyl-^3H) thymidine was added directly to the drug-containing media at a concentration of 20 μCi/mL (comprising one tenth of the media volume) and incubated overnight. The suspension cells were transferred to a UniFilter GF/C plate (Packard) and washed with PBS in a plate washer (Packard). After drying, 25 μL per well of scintillant (Microscint 20, Packard) was added, and sealed plates were counted. Toxicity is expressed as a percentage of the control counts. For experiments involving shorter exposures to compounds, cells were grown in the presence of compound for the appropriate time, then the media was replaced with fresh drug-free media, and incubation continued for the remainder of 96 hours, followed by the normal tritiated thymidine uptake and washing protocol.
In the case of Topo II poisons, the drug/enzyme complex directly produces a DSB, which could occur in all phases of the cell cycle and can apparently be repaired by either DSB repair pathway. Topo I poisons, however, create a single strand break that is converted to a DSB by passage of a replication fork during ongoing DNA synthesis (D'Arpa, et al., Cancer Research 50: 6919–24 (1990), Hsiang, et al., Cancer Research 49: 5077–82 (1989), Holm, et al., Cancer Research 49: 6365–8 (1989)). It has been proposed that DSB's created in this context can only be repaired by homologous recombination, additionally requiring proteins involved in sister chromatid cohesion (Castano, et al., Genes & Development 10: 2564–76 (1996), Castano, et al., Nucleic Acids Research 24: 2404–10 (1996), Walowsky, et al., Journal of Biological Chemistry 274: 7302–8 (1999)).

[2] = tested on: ACHN, SW620, A549, MDA-N; test: Thymidine incorporation toxicity assay in four cancer derived cell lines; format: cell-based, human; conditions: for correlation between MDR1 activity and toxicity/sensitivity: A549, SW620, ACHN (MDR1 10, 31, 120); for toxicity in human cancer and vertebrate cells: FIG. 4
Procedure: as §1, §2, §3
A common mechanism of tumor resistance to chemotherapeutic agents is overexpression of the drug efflux protein MDR1 (Kane, et al., Advances in Drug Research 28: 182–252 (1996), Nooter, et al., Leukemia Research 18: 233–43 (1994)). MDR1 is overexpressed in many tumor derived cell lines (for instance see http://dtp.nci.nih.gov/), and its overexpression inversely correlates with sensitivity to certain compounds (Kane, et al., Advances in Drug Research 28: 182–252 (1996)).

[3] = tested on: Rat1a fibroblasts; test: Effect of exposure time on toxicity in Rat1a fibroblasts; format: cell-based, rat; conditions: for toxicity with a two hour exposure: additional experiments; for toxicity of four hour versus six hour exposure: total incubation 96 hours
Procedure: as §3

[4] = tested on: yeast lacking Ku70 (encoded by the HDF1 gene); test: Yeast toxicity in NHEJ-deficient strain lacking Ku70 (hdf1); format: cell-based
Procedure: Yeast toxicity assays were performed essentially as follows: Exponentially growing cultures of the appropriate strains were diluted in synthetic complete media to a concentration of 7.4×10^4 cells/mL, and aliquots (135 μL) were transferred to each well of clear flat-bottomed 96 well plates. Compounds were added in duplicate or triplicate as 15 μL of the appropriate dilution in 5% DMSO. A 15 μL portion of 5% DMSO was added to control wells. Assay plates were incubated at 30° C. for approximately seven generations growth in solvent control wells (as monitored by OD660, typically 21–24 hours), then the OD660 of the cultures was measured in a microplate reader (Bio-Tek). Cell growth (OD660) in treated wells was plotted as a percentage of the growth in at least four averaged solvent control wells for the same strain. Camptothecin sodium salt (camptothecin Na) was the agent used in all yeast assays as standard.
The sensitivity of yeast lacking Ku70 (encoded by the HDF1 gene) to camptothecin Na, compounds Ia and IIa, has now been examined. […] Thus the NHEJ pathway is not important for the repair of lesions induced by these compounds in yeast.

Row | SMILES | effect of loss of KU70 on toxicity [1] | effect of loss of homologous recombination (RAD52 or RAD54) on toxicity [1] | relative sensitivity of ACHN and A549 [2] | correlation between MDR1 activity and toxicity/sensitivity [2] | toxicity in human cancer and vertebrate cells [2] | cell line against which most effective ([2]; four tumor derived cell lines) | effectiveness of 96 hour exposure relative to four hour exposure [3] | toxicity with a two hour exposure [3] | toxicity of four hour versus six hour exposure [3] | sensitivity of NHEJ-deficient (hdf1) mutant compared with wild-type [4] | differences in toxicity between the cell lines ([2]; four tumor derived cell lines)
1 | O=c1c(Cl)c(Cl)cnn1CCCl [compound IIa] | unaffected by loss of KU70 | only marginally affected | ACHN is more sensitive than A549 | No correlation | toxic in human cancer and vertebrate cells | most effective against the colon carcinoma derived cell line SW620 | three- to five-fold | nearly full toxicity | equally effective | indistinguishable from that of wild-type | –
2 | O=C(CCl)Nc1ccc(C(=O)N/N=C/c2ccc(Cl)cc2)cc1 [compound Ia] | unaffected by loss of KU70 | only marginally affected | – | No correlation | toxic in human cancer and vertebrate cells | most effective against the colon carcinoma derived cell line SW620 | three- to five-fold | nearly full toxicity | equally effective | indistinguishable from that of wild-type | no significant differences in toxicity

Reference: US7173063B1, “Topoisomerase poisons for the treatment of proliferative disorders” (Fred Hutchinson Cancer Research Center, priority 2000, dated 2007)
